Experimental data: patent US4652547A (Eli Lilly and Company, priority 1984, dated 1987)
Where two headings read alike, the source gives them in different places.

Assays:
hepatic glucose output = assay: Euglycemic glucose-clamp studies: suppression of hepatic glucose output; format: in vivo, human
Experimental: J. Physiol. 237:E214-E223 (1979). With this technique, an antecubital vein is cannulated in an antegrade manner to administer the infusates. A dorsal hand vein is cannulated in a retrograde fashion and kept in a warming device (70° C.) to facilitate venous sampling and provide arterialized venous blood. After insertion of the catheters, [3--3H]-glucose is infused for at least 30 minutes before initiating the hormone infusion. At the onset of hormone infusion, a priming dose of either insulin or proinsulin is administered during the initial 10 minutes in a logarithmically decreasing manner to acutely raise the serum hormone level. […] The overall glucose disposal rate is assessed isotopically for each 20 minute interval of the study.
(§1) Each subject underwent a total of 8 euglycemic glucose clamp studies, each performed on a separate day. […] Hepatic glucose output was quantitated in the basal state and during each clamp study using a primed continuous infusion of [3--3H]glucose. […] The dose response relationship for insulin and proinsulinmediated suppression of hepatic glucose output was determined by calculating the percent suppression of basal hepatic glucose output at each steady state hormone concentration obtained during the euglycemic clamp studies.

[1] = Description: (§2) At this point, the hormone infusion was abruptly stopped, and the glucose concentration was maintained constant until the biologic effects of the infused hormone were no longer detectable.
[2] = Hormone activity used for dosing; details: basis for administered amounts
plasma glucose = assay: Response of fasting Type II diabetic patients: plasma glucose and hypoglycemia; details: 0.2 U/kg s.c.
fat cells = details: e.g. fat cells; cited from earlier work
HGO = system: HGO
Description: For example, in non-insulin dependent diabetes mellitus (NIDDM), one of the major metabolic abnormalities that maintains the resultant hyperglycemic state is accelerated hepatic glucose production.

glucose disposal = assay: Euglycemic glucose-clamp studies: glucose disposal; format: in vivo, human
Experimental: Ten healthy control subjects (five female and five male) ranging in age from 25-40 years (mean age=29±3 years) with mean relative body weights of 0.96+0.02 were used.
With this technique, an antecubital vein is cannulated in an antegrade manner to administer the infusates. A dorsal hand vein is cannulated in a retrograde fashion and kept in a warming device (70° C.) to facilitate venous sampling and provide arterialized venous blood. After insertion of the catheters, [3--3H]-glucose is infused for at least 30 minutes before initiating the hormone infusion. At the onset of hormone infusion, a priming dose of either insulin or proinsulin is administered during the initial 10 minutes in a logarithmically decreasing manner to acutely raise the serum hormone level. The amount of insulin or proinsulin given during this initial 10 minute period is roughly twice that given during each subsequent 10 minute interval by a continuous hormone infusion. […] The overall glucose disposal rate is assessed isotopically for each 20 minute interval of the study.
On one day, each subject received a 5.0 μg/M2/min (120 mU/M2/min) insulin infusion over a 6 hour period. […] Each proinsulin infusion was carried out for 300 minutes, with the quantitation of its biological effects based on measurements made during the 5th hour of each study. […]

[3] = 0.2 U/kg s.c., five Type II subjects
[4] = remark: listed apart in the source
Experimental: J. Physiol. 237:E214-E223 (1979). With this technique, an antecubital vein is cannulated in an antegrade manner to administer the infusates. A dorsal hand vein is cannulated in a retrograde fashion and kept in a warming device (70° C.) to facilitate venous sampling and provide arterialized venous blood. After insertion of the catheters, [3--3H]-glucose is infused for at least 30 minutes before initiating the hormone infusion. At the onset of hormone infusion, a priming dose of either insulin or proinsulin is administered during the initial 10 minutes in a logarithmically decreasing manner to acutely raise the serum hormone level. The amount of insulin or proinsulin given during this initial 10 minute period is roughly twice that given during each subsequent 10 minute interval by a continuous hormone infusion. The serum glucose is maintained between 80 and 90 mg/dl throughout the study period with a coefficient of variation of less than 5% by means of a variable rate of infusion of 20% dextrose. The overall glucose disposal rate is assessed isotopically for each 20 minute interval of the study.
as §1, with “day. Insulin infusion rates of 15, 40, 120, and 240 mU/M2/min were utilized to construct a dose response curve for insulin action. With this approach an attempt was made to achieve steady state insulin concentrations of 40 to 800 μU/ml (Table 1). Each subject was also studied with four different proinsulin infusions.” for “day.”

[5] = system: insulin-degrading proteases; details: proteases at subcutaneous injection site of certain diabetics
[6] = system: hepatic glucose production; assay: Subcutaneous administration to Type II subjects: hepatic glucose production; format: in vivo, human; details: 0.2 U/kg s.c.
[7] = system: peripheral glucose uptake; assay: Kinetics of activation and deactivation: peripheral glucose uptake; format: in vivo, human
Description: Marked differences between the two hormones were noted when biologic activity was studied.
as §2

[8] = system: hepatic glucose output (HGO); assay: Kinetics of activation and deactivation: hepatic glucose output (HGO); format: in vivo, human
Description: as §2

[9] = Study A: insulin 15 mU/M^2/min, proinsulin 2.75 μg/M^2/min

Substance: human proinsulin
- Suppression of Hepatic Glucose Output (Mean ± SE) (hepatic glucose output; [9]): 80 ± 6%
- Hormone concentration required to achieve 90% suppression of hepatic glucose output (hepatic glucose output; steady state serum concentration, euglycemic clamp): 3.35 pmol/mL
- t 1/2 of clearance from the circulation ([1]; after stopping 5 hour infusion (human insulin 0.55, human proinsulin 2.75 μg/M^2/min)): 0.333 h
- Time by which hormone concentrations are below biologically effective values ([1]; after stopping infusion): ≤ 90 minutes
- Initial volume of distribution compared to human insulin ([1]; primed continuous infusion): much greater
- Time to steady state hormone concentration ([1]; primed continuous infusion): 90 to 120 min
- Time of initial peak of hormone concentration ([1]; primed continuous infusion, all infusion rates): no initial peak of hormone concentration was observed
- Hormone activity [2]: 4 IU/mg
- Blood glucose level to which each subject was lowered (plasma glucose; five fasting Type II subjects): 80 to 110 mg/dL
- Plasma Glucose (plasma glucose; Mean of subjects (mean total dose 18.7 I.U.), 0 min after injection): 245 mg/dL
- Plasma Glucose (plasma glucose; Mean of subjects (mean total dose 18.7 I.U.), 40 min after injection): 235 mg/dL
- Plasma Glucose (plasma glucose; Mean of subjects (mean total dose 18.7 I.U.), 80 min after injection): 221 mg/dL
- Plasma Glucose (plasma glucose; Mean of subjects (mean total dose 18.7 I.U.), 120 min after injection): 205 mg/dL
- Plasma Glucose (plasma glucose; Mean of subjects (mean total dose 18.7 I.U.), 160 min after injection): 188 mg/dL
- Plasma Glucose (plasma glucose; Mean of subjects (mean total dose 18.7 I.U.), 200 min after injection): 167 mg/dL
- Plasma Glucose (plasma glucose; Mean of subjects (mean total dose 18.7 I.U.), 280 min after injection): 129 mg/dL
- Plasma Glucose (plasma glucose; Mean of subjects (mean total dose 18.7 I.U.), 300 min after injection): 113 mg/dL
- Plasma Glucose (plasma glucose; Mean of subjects (mean total dose 18.7 I.U.), 360 min after injection): 102 mg/dL
- Plasma Glucose (plasma glucose; Mean of subjects (mean total dose 18.7 I.U.), 400 min after injection): 95 mg/dL
- Plasma Glucose (plasma glucose; Mean of subjects (mean total dose 18.7 I.U.), 440 min after injection): 92 mg/dL
- Plasma Glucose (plasma glucose; Mean of subjects (mean total dose 18.7 I.U.), 480 min after injection): 96 mg/dL
- Plasma Glucose (plasma glucose; subject (total dose 15.0 I.U.), 0 min after injection): 332 mg/dL
- Plasma Glucose (plasma glucose; subject (total dose 15.0 I.U.), 40 min after injection): 328 mg/dL
- Plasma Glucose (plasma glucose; subject (total dose 15.0 I.U.), 80 min after injection): 308 mg/dL
- Plasma Glucose (plasma glucose; subject (total dose 15.0 I.U.), 120 min after injection): 288 mg/dL
- Plasma Glucose (plasma glucose; subject (total dose 15.0 I.U.), 160 min after injection): 272 mg/dL
- Plasma Glucose (plasma glucose; subject (total dose 15.0 I.U.), 200 min after injection): 247 mg/dL
- Plasma Glucose (plasma glucose; subject (total dose 15.0 I.U.), 240 min after injection): 210 mg/dL
- Plasma Glucose (plasma glucose; subject (total dose 15.0 I.U.), 280 min after injection): 174 mg/dL
- Plasma Glucose (plasma glucose; subject (total dose 15.0 I.U.), 360 min after injection): 94 mg/dL
- Plasma Glucose (plasma glucose; subject four (total dose 27.2 I.U.), 0 min after injection): 159 mg/dL
- Plasma Glucose (plasma glucose; subject four (total dose 27.2 I.U.), 40 min after injection): 144 mg/dL
- Plasma Glucose (plasma glucose; subject four (total dose 27.2 I.U.), 120 min after injection): 128 mg/dL
- Plasma Glucose (plasma glucose; subject four (total dose 27.2 I.U.), 200 min after injection): 110 mg/dL
- Plasma Glucose (plasma glucose; subject four (total dose 27.2 I.U.), 240 min after injection): 101 mg/dL
- Plasma Glucose (plasma glucose; subject four (total dose 27.2 I.U.), 280 min after injection): 98 mg/dL
- Plasma Glucose (plasma glucose; subject four (total dose 27.2 I.U.), 300 min after injection): 88 mg/dL
- Plasma Glucose (plasma glucose; subject four (total dose 27.2 I.U.), 360 min after injection): 84 mg/dL
- Plasma Glucose (plasma glucose; subject four (total dose 27.2 I.U.), 400 min after injection): 85 mg/dL
- Plasma Glucose (plasma glucose; subject four (total dose 27.2 I.U.), 440 min after injection): 86 mg/dL
- Plasma Glucose (plasma glucose; subject four (total dose 27.2 I.U.), 480 min after injection): 88 mg/dL
- Plasma Glucose (plasma glucose; subject one (total dose 14.8 I.U.), 0 min after injection): 213 mg/dL
- Plasma Glucose (plasma glucose; subject one (total dose 14.8 I.U.), 40 min after injection): 203 mg/dL
- Plasma Glucose (plasma glucose; subject one (total dose 14.8 I.U.), 80 min after injection): 187 mg/dL
- Plasma Glucose (plasma glucose; subject one (total dose 14.8 I.U.), 160 min after injection): 140 mg/dL
- Plasma Glucose (plasma glucose; subject one (total dose 14.8 I.U.), 240 min after injection): 81 mg/dL
- Plasma Glucose (plasma glucose; subject one (total dose 14.8 I.U.), 280 min after injection): 77 mg/dL
- Plasma Glucose (plasma glucose; subject one (total dose 14.8 I.U.), 300 min after injection): 80 mg/dL
- Plasma Glucose (plasma glucose; subject one (total dose 14.8 I.U.), 320 min after injection): 80 mg/dL
- Plasma Glucose (plasma glucose; subject three (total dose 16.3 I.U.), 0 min after injection): 290 mg/dL
- Plasma Glucose (plasma glucose; subject three (total dose 16.3 I.U.), 40 min after injection): 282 mg/dL
- Plasma Glucose (plasma glucose; subject three (total dose 16.3 I.U.), 80 min after injection): 272 mg/dL
- Plasma Glucose (plasma glucose; subject three (total dose 16.3 I.U.), 120 min after injection): 250 mg/dL
- Plasma Glucose (plasma glucose; subject three (total dose 16.3 I.U.), 160 min after injection): 230 mg/dL
- Plasma Glucose (plasma glucose; subject three (total dose 16.3 I.U.), 200 min after injection): 200 mg/dL
- Plasma Glucose (plasma glucose; subject three (total dose 16.3 I.U.), 240 min after injection): 183 mg/dL
- Plasma Glucose (plasma glucose; subject three (total dose 16.3 I.U.), 280 min after injection): 152 mg/dL
- Plasma Glucose (plasma glucose; subject three (total dose 16.3 I.U.), 300 min after injection): 127 mg/dL
- Plasma Glucose (plasma glucose; subject three (total dose 16.3 I.U.), 360 min after injection): 101 mg/dL
- Plasma Glucose (plasma glucose; subject three (total dose 16.3 I.U.), 400 min after injection): 82 mg/dL
- Plasma Glucose (plasma glucose; subject three (total dose 16.3 I.U.), 440 min after injection): 77 mg/dL
- Plasma Glucose (plasma glucose; subject two (total dose 20.0 I.U.), 0 min after injection): 231 mg/dL
- Plasma Glucose (plasma glucose; subject two (total dose 20.0 I.U.), 40 min after injection): 217 mg/dL
- Plasma Glucose (plasma glucose; subject two (total dose 20.0 I.U.), 80 min after injection): 201 mg/dL
- Plasma Glucose (plasma glucose; subject two (total dose 20.0 I.U.), 120 min after injection): 191 mg/dL
- Plasma Glucose (plasma glucose; subject two (total dose 20.0 I.U.), 160 min after injection): 182 mg/dL
- Plasma Glucose (plasma glucose; subject two (total dose 20.0 I.U.), 240 min after injection): 164 mg/dL
- Plasma Glucose (plasma glucose; subject two (total dose 20.0 I.U.), 280 min after injection): 143 mg/dL
- Plasma Glucose (plasma glucose; subject two (total dose 20.0 I.U.), 300 min after injection): 134 mg/dL
- Plasma Glucose (plasma glucose; subject two (total dose 20.0 I.U.), 360 min after injection): 128 mg/dL
- Plasma Glucose (plasma glucose; subject two (total dose 20.0 I.U.), 400 min after injection): 117 mg/dL
- Plasma Glucose (plasma glucose; subject two (total dose 20.0 I.U.), 440 min after injection): 112 mg/dL
- Plasma Glucose (plasma glucose; subject two (total dose 20.0 I.U.), 480 min after injection): 104 mg/dL
- Plasma Glucose (plasma glucose; subject two (total dose 20.0 I.U.), 500 min after injection): 100 mg/dL
- Internalization into target tissues (fat cells): internalized into target tissues
- Expected suppression of HGO (HGO; NIDDM subjects, circulating concentration approximately 1.5 2 pmol/ml): approximately 50%
- Expected duration of adequate glycemic control (HGO; sustained level of 1.5-2 pmol/ml for about 3 hours, CSII or single s.c. injection): 8 to 10 h
- Time to reach steady state rates of glucose disposal (glucose disposal; 5 subjects, insulin 5.0 μg/M2/min over 6 hours, proinsulin 22.5 μg/M2/min over 8 hours): ≤ 5 h
- Glucose Disposal Rate (Mean ± SE) (glucose disposal; [9]): 122 ± 11 mg/M^2/min
- Mean peak hormone blood level [3]: 6.8 pmol/mL
- Time of mean peak hormone blood level [3]: 230 ± 33 min
- Steady State Hormone Levels (Mean ± SEM) ([4]; infusion A: insulin 0.63 μg/M^2/min, proinsulin 2.75 μg/M^2/min): 2.55 ± 0.16 pmol/mL
- Steady State Hormone Levels (Mean ± SEM) ([4]; infusion B: insulin […]^2/min, proinsulin 7.5 μg/M^2/min): 6.24 ± 0.49 pmol/mL
- Steady State Hormone Levels (Mean ± SEM) ([4]; infusion C: insulin 5.0 μg/M^2/min, proinsulin 22.5 μg/M^2/min): 21.2 ± 1.4 pmol/mL
- Steady State Hormone Levels (Mean ± SEM) ([4]; infusion D: insulin 10.0 μg/M^2/min, proinsulin 45.0 μg/M^2/min): 40.0 ± 1.9 pmol/mL
- Degradation by insulin-degrading proteases [5]: not degraded
- Effect on hepatic glucose production [6]: suppressed into the normal range
- Time of maximum suppression of hepatic glucose production [6]: 264 ± 31 min
- Minimum hepatic glucose production ([6]; basal 3.83±0.6): 1.21 ± 0.2 mg/kg/min
- t 1/2 of deactivation of effects on glucose disposal ([7]; after stopping 5 hour infusion): 1.45 ± 0.233 h
- Decay of effect to stimulate glucose disposal, times more slowly than human insulin ([7]; after stopping infusion): 2.2 times
- Time for glucose disposal rates to return to basal ([7]; following cessation of infusion): 160 min
- Time for effect to stimulate glucose disposal to reach steady state ([7]; hormone infusion): > 5 h
- t 1/2 of deactivation of effect to inhibit HGO ([8]; after stopping 5 hour infusion): 3.83 ± 0.317 h
- Time for HGO to return to baseline values, by extrapolation of the curve ([8]; after stopping infusion): > 6 h
- Time until decline in effect to suppress HGO could be detected ([8]; after stopping infusion): 120 min
